According to patent publication US20230416703A1, “Methods and Materials for Producing Polyols and Electron Rich Compounds” (THE TRUSTEES OF PRINCETON UNIVERSITY, priority 2019, published 2023):
Entries after “also recorded” stand apart in the source; their conditions may differ. Each block holds one molecule with its values, some of them ahead of it.

How the values were obtained:
[1] = biological target: T1, Pyp1 (Saccharomyces cerevisiae, UniProt P53981); assay: Phosphatase activity of purified recombinant Pyp1 against phosphorylated substrates; format: biochemical, S. cerevisiae; conditions: incubation with purified Pyp1, 0.5 mM substrate
T1 construct: made in house; host or cells: E. coli BL21 (DE3) Gold
T1 sequence (P53981 whole entry): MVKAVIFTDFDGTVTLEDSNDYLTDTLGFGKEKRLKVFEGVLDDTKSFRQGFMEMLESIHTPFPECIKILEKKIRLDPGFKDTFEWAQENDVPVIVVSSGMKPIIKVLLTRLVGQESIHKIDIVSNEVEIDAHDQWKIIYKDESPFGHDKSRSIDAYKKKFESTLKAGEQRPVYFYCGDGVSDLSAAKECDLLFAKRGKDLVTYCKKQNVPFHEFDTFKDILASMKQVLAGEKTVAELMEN
Protocol: Purified Pyp1 phosphatase activity was assayed in the presence of 0.5 mM substrate and 5 mM Mg^2+ (pH=7.0, 30° C.) by monitoring the appearance of free phosphate or the polyol. The y axis represents specific phosphatase activity (μmol product made per mg of protein per minute) (mean±range of N=2 replicates).
Purified Pyp1's phosphatase activity was assayed against 0.5 mM ribitol-5P by LC-MS. […] (FIG. 10B). Pyp1's D-polyol phosphatase activity was measured in the presence of 0.5 mM substrate and 5 mM Mg^2+ (pH=7.0, 30° C.) by monitoring the appearance of phosphate or the polyol. The y-axis represents specific phosphatase activity (moles product per min per mg of protein) (mean±range, N=2).
In the initial screening of Pyp1's phosphatase activity, the gene encoding Pyp1 was amplified by PCR using S. cerevisiae genomic DNA. The amplified fragments were cloned into a modified pET15b vector (Novagen, Darmstadt, Germany) and overexpressed in the E. coli BL21(DE3) Gold strain (Stratagene, La Jolla, California) as previously described by Kuznetsova et al., J Biol Chem 2010, 285, 21049. The recombinant proteins were purified using metal ion affinity chromatography on nickel affinity resin (Qiagen, Hilden, Germany) to high homogeneity and stored at −80° C. Purified Pyp1 was screened for the presence of phosphatase activity against the general phosphatase substrate p-nitrophenyl phosphate (pNPP) and 90 phosphorylated metabolites as described previously by Kuznetsova et al., J Biol Chem 2006, 281, 36149. […]
Briefly, the gene encoding Pyp1 was amplified by PCR using S. cerevisiae genomic DNA. The amplified fragments were cloned into a modified pET15b vector (Novagen, Darmstadt, Germany) and overexpressed in the E. coli BL21 (DE3) Gold strain (Stratagene, La Jolla, California) as previously described (Kuznetsova et al., 2010). The recombinant protein was purified using metal ion affinity chromatography on nickel chelate resin (Qiagen, Hilden, Germany) to high homogeneity and stored at −80° C. Purified Pyp1 was then screened for phosphatase activity as described previously (Kuznetsova et al., 2006).

[2] = biological target: T2, yeast Pgi1 (phosphoglucose isomerase) (Saccharomyces cerevisiae, UniProt P12709); assay: Inhibition of purified Pgi1 (phosphoglucose isomerase) activity, LC/MS detection of glucose-6-phosphate; format: biochemical; conditions: for Inhibition of Pgi1 (in words): 0.6 mM fructose-6-phosphate, 0.05-5 mM polyol phosphate
T2 construct: purchased Sigma Aldrich (St. Louis, MO)
T2 sequence (P12709 2-554 limits assumed): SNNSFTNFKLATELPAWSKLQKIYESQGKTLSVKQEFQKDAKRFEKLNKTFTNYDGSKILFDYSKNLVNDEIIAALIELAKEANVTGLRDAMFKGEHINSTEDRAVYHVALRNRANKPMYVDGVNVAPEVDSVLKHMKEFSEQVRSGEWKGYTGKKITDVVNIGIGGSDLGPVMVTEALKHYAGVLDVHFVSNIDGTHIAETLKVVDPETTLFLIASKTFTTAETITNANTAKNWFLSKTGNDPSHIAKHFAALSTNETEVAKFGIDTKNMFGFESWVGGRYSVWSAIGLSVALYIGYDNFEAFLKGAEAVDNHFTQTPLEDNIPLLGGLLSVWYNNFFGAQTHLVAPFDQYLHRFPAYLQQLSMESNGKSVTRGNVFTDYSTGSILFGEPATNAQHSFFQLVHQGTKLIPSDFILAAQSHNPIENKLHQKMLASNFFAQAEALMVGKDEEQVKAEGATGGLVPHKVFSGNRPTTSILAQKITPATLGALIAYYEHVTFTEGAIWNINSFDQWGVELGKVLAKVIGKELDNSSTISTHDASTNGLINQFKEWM
Protocol: Purified Pgi1's activity was assayed in the presence of 0.6 mM fructose-6-phosphate, 5 mM Mg^2+ (pH=7.0, 30° C.) and a range of 0.05-5 mM of sorbitol-6P or ribitol-5P by monitoring the appearance of glucose-6-phosphate. The y axis represents relative Pgi1 activity (mean±range of N=2 replicates).
FIGS. 13A-13C show polyol phosphates inhibit phosphoglucose isomerase in vitro and in growing yeast. (FIG. 13A). Activity of the purified Pgi1 was assayed in the presence of 0.6 mM fructose-6-phosphate (substrate), 5 mM Mg2+ (pH=7.0, 30° C.) and a range of 0.05-5 mM of sorbitol-6P or ribitol-5P by monitoring the appearance of glucose-6-phosphate. The x-axis represents polyol phosphate concentration and the y-axis represents relative Pgi1 activity (mean±range of N=2 replicates). (FIG. 13B). […] This experiment is used to define a characteristic low-Pgi metabolome. (FIG. 13C). Metabolome profiling of pyp1Δ (dark red) and wild type (blue) cells at t=1 h after switching from trehalose+ribitol to glucose+ribitol.
For the determination of IC50 of sorbitol-6-phosphate and ribitol-5-phosphate on phosphoglucose isomerase, yeast Pgi1 was purchased from Sigma Aldrich (St. Louis, MO). Phosphoglucose isomerase activity was determined by adding fructose-6-phosphate and monitoring the appearance of glucose-6-phosphate using LC/MS. It was determined that the LC/MS-based assay is consistently more sensitive and accurate than the colometric-based assay, which involves coupling the Pgi1 activity with glucose-6-phosphate dehydrogenase activity and monitoring the appearance of NADH. The reaction mixture contained 100 mM Tris-HCl at a pH of 8.0, 10 mM MgCl2, 0.6 mM fructose-6-phosphate (concentration in cells grown exponentially on glucose), and a range of sorbitol-6-phosphate and ribitol-5-phosphate concentrations (0.05 to 5 mM). The resulting data were again fitted to the Hill equation using the GraphPad Prism Software.
To measure the inhibition of Pgi by sorbitol-6-phosphate and ribitol-5-phosphate, yeast Pgi1 was purchased from Sigma Aldrich (St. Louis, MO). Phosphoglucose isomerase activity was determined by adding fructose-6-phosphate and monitoring the appearance of glucose-6-phosphate using LC/MS. We found such LC/MS based assay is consistently more sensitive and accurate than the more typical colorimetric-based assay, which involves coupling the Pgi1 activity with glucose-6-phosphate dehydrogenase activity and monitoring the appearance of NADH. The reaction mixture contained 100 mM Tris-HCl at pH 8.0, 10 mM MgCl2, 0.6 mM fructose-6-phosphate (the physiological concentration in cells grown exponentially on glucose), and a range of sorbitol-6-phosphate and ribitol-5-phosphate concentrations (0.05 to 5 mM). The resulting data were fitted to the Hill equation using the GraphPad Prism Software.

[3] = tested on: pyp1Δ cells; assay: Growth rate of pyp1Δ yeast in the presence of ribitol; format: cell-based, Saccharomyces cerevisiae
Excerpt: (§1) Wild type yeast and pyp1Δ cells growing on 1% trehalose in the absence or presence of 1% ribitol (upper panel) were switched to media with trehalose substituted by 1% glucose (lower panel). The y axis represents ratio of growth rates (mean±range of N=2 replicates) of cells growing in the presence of ribitol vs. cells growing in the absence of ribitol. […] The x axis represents hours after the switch and the y axis represents absolute intracellular concentration (mean±range of N=2 replicates). […] The x axis represents different growth rates and the y axis represents relative expression level of PYP1. […] The y axis represents absolute intracellular concentration, except for the panel displaying the NADPH/NADP^+ ratio (mean±range of N=2 replicates).
(§2) (FIG. 12A). Growth of wild type and pyp1Δ yeast on sorbitol. Yeast cells grown on YPD medium were switched to minimal media containing 2% sorbitol as the carbon source. The x-axis represents days after the switch and the y-axis represents optical density (A600). (FIG. 12B). Absolute concentration of sorbitol-6-phosphate in wild type and pyp1Δ cells in the experiment shown in (A). The x-axis represents days after the switch and the y-axis represents absolute intracellular concentration (mean±range, N=2). (FIG. 12C). Growth of wild type and pyp1Δ cells on glycerol and mannitol. […]

[4] = tested on: wild type yeast cells; assay: Growth rate of wild type yeast in the presence of ribitol; format: cell-based, Saccharomyces cerevisiae; conditions: 1% trehalose +/- 1% ribitol
Excerpt: as §1, §2

SMILES: O=P(O)(O)OC[C@@H](O)[C@@H](O)[C@@H](O)CO [ribitol-5P, ribitol-5-phosphate]
- Pyp1 phosphatase activity on substrate (in words) [1]: depletion
- Inhibition of Pgi1 (in words) [2]: did not inhibit Pgi1 as strongly as sorbitol-6P; also recorded: less potently
- Lower growth rate in pyp1Δ cells after carbon upshift ([3]; switched from trehalose + ribitol to glucose plus ribitol): ~50%

SMILES: O=P(O)(O)OCC(O)CO [glycerol-1P, D-glycerol-3-phosphate]
- Pyp1 phosphatase activity on substrate (in words) [1]: depletion
- Pyp1 phosphatase activity on substrate (in words) ([1]; listed as Glycerol-1-phosphate): in vitro substrate

SMILES: O=P(O)(O)OCC(O)CO (racemic) [racemic glycerol-3P]
- Pyp1 phosphatase activity on substrate (in words) [1]: hydrolysis

SMILES: OC[C@@H](O)[C@@H](O)[C@@H](O)CO [ribitol]
- Decrease of the growth rate of pyp1Δ cells ([3]; 1% trehalose +/- 1% ribitol): ~20%
- Effect on growth rate of wild type cells growing on trehalose [4]: does not affect the growth rate; also recorded: without impacting growth rate

More lines, now with the values ahead:

- Pyp1 phosphatase activity on substrate (in words) [1]: No detectable phosphatase activity
- Pyp1 phosphatase activity on substrate (in words) ([1]; listed as octulose-8P): no detectable phosphatase activity
SMILES: O=C(CO)[C@@H](O)[C@H](O)[C@H](O)[C@H](O)[C@H](O)COP(=O)(O)O [O8P, D-Glycero-D-Altro-Octulose-8-phosphate]

- Pyp1 phosphatase activity on substrate (in words) [1]: depletion; also recorded: hydrolysis
- Inhibition of Pgi1 (in words) [2]: inhibit
- inhibition at 1000 µM ([2]; 1 mM sorbitol-6P added, read-out: Pgi1 activity inhibited): > 85%
- IC50 ([2]; purified Pgi1, 0.6 mM fructose-6-phosphate, inhibitor range 0.05-5 mM): ~50 µM
SMILES: O=P(O)(O)OC[C@@H](O)[C@@H](O)[C@H](O)[C@@H](O)CO [sorbitol-6P, sorbitol-6-phosphate]

- Pyp1 phosphatase activity on substrate (in words) [1]: hydrolysis
SMILES: O=C[C@H](O)[C@H](O)COP(=O)(O)O [erythrose-4P]

- Pyp1 phosphatase activity on substrate (in words) ([1]; listed as (L)-glycerol-3P): very low activity
SMILES: O=P(O)(O)OC[C@H](O)CO [glycerol-3P, L-glycerol-3-phosphate]
